According to paper PMC2717937 (Journal of Experimental & Clinical Cancer Research : CR, 2009):
Counter-ions that a name gives are not always drawn. Like-named read-outs stand apart in the source and are kept apart here.

Experiments:
[1] = vehicle 30 min before, listed as Imatinib alone
[2] = imatinib 50 mg/kg oral, vehicle 30 min before
[3] = imatinib 50 mg/kg oral, vehicle 30 min before; remark: listed apart in the source
[4] = oral; cited from earlier work
in vivo [5] = conditions: Balb/C, mouse, plasma, po, 50 mg/kg
in vivo [6] = conditions: Balb/C, mouse, liver, po, 50 mg/kg
in vivo [7] = conditions: Balb/C, mouse, brain, po, 50 mg/kg
[8] = tested on: ABCB1 in CD56+ lymphocytes; conditions: healthy volunteers, tariquidar 2 mg/kg i.v. or ≥ 200 mg orally; cited from earlier work
drug efflux = tested on: drug efflux; parameters: method as in PMID 11212278; conditions: cited from earlier work
[9] = elacridar with imatinib 12.5 mg/kg vs imatinib alone; cited from earlier work
[10] = listed as imatinib plus vehicle

SMILES: Cc1ccc(NC(=O)c2ccc(CN3CCN(C)CC3)cc2)cc1Nc1nccc(-c2cccnc2)n1 [Imatinib, Imatinib mesylate]
- Plasma Cmax ([1]; imatinib 50 mg/kg oral gavage, mean, n = 3 per time point): 5,710.5 ng/mL
- Plasma AUC0–24 ([1]; imatinib 50 mg/kg oral): 12,167.5 hr*ng/mL
- Liver AUC0–24 [2]: 68,330.8 hr*ng/g
- Liver AUC0–24 (text) [2]: 68,331 hr*ng/mL
- Liver Cmax ([2]; listed as Imatinib alone): 26,279.7 ng/g
- Liver Cmax [2, 10]: 26,280 ng/g
- Brain AUC0–4 [3]: 574.23 ng·h/g
- Brain Cmax (corrected for brain vascular space) ([3]; listed as Imatinib alone): 194.7 ng/g
- Brain Cmax (corrected for brain vascular space) [3, 10]: 195 ng/g
- Bioavailability [4]: approximately 98%
- Tmax (in vivo [5]): 10.2 min
- AUC(0-t) (in vivo [5]; Plasma AUC0–24, imatinib 50 mg/kg oral, vehicle 30 min before): 12200 ng·h/mL
- Cmax (in vivo [5]; Plasma Cmax, imatinib 50 mg/kg oral gavage, vehicle 30 min before, mean, n = 3 per time point): 5710 ng/mL
- Tmax (in vivo [6]): 15 min
- Tmax (in vivo [7]): 120 min

SMILES: COc1cc2c(cc1OC)CN(CCc1ccc(NC(=O)c3cc(OC)c(OC)cc3NC(=O)c3cnc4ccccc4c3)cc1)CC2 [Tariquidar]
- Duration of 100% inhibition of ABCB1 in CD56+ lymphocytes [8]: over 24 hours
- Inhibition of ABCB1 in CD56+ lymphocytes [8]: 100%
- Persistence of inhibitory effect on drug efflux in vitro (drug efflux): persists for over two hours

SMILES: COc1cc2c(cc1OC)CN(CCc1ccc(NC(=O)c3cccc4c(=O)c5cccc(OC)c5[nH]c34)cc1)CC2 [elacridar]
- Fold increase in brain-to-plasma concentration ratio of imatinib [9]: 9.3 fold
